Measurements as given in patent US20090012103A1, “SUBSTITUTED HETEROCYCLIC COMPOUNDS” (priority 2007, published 2009).

Target: wild-type human cardiac sodium channel, hNav1.5 (Homo sapiens, UniProt Q14524)
Experiment: Late INa screening assay (late sodium current, PatchXpress whole cell patch clamp)
Type: cell-based
Settings: compound at 10 μM; read-out: Late INa % blk

wild-type human cardiac sodium channel, hNav1.5, sequence (Q14524 whole entry): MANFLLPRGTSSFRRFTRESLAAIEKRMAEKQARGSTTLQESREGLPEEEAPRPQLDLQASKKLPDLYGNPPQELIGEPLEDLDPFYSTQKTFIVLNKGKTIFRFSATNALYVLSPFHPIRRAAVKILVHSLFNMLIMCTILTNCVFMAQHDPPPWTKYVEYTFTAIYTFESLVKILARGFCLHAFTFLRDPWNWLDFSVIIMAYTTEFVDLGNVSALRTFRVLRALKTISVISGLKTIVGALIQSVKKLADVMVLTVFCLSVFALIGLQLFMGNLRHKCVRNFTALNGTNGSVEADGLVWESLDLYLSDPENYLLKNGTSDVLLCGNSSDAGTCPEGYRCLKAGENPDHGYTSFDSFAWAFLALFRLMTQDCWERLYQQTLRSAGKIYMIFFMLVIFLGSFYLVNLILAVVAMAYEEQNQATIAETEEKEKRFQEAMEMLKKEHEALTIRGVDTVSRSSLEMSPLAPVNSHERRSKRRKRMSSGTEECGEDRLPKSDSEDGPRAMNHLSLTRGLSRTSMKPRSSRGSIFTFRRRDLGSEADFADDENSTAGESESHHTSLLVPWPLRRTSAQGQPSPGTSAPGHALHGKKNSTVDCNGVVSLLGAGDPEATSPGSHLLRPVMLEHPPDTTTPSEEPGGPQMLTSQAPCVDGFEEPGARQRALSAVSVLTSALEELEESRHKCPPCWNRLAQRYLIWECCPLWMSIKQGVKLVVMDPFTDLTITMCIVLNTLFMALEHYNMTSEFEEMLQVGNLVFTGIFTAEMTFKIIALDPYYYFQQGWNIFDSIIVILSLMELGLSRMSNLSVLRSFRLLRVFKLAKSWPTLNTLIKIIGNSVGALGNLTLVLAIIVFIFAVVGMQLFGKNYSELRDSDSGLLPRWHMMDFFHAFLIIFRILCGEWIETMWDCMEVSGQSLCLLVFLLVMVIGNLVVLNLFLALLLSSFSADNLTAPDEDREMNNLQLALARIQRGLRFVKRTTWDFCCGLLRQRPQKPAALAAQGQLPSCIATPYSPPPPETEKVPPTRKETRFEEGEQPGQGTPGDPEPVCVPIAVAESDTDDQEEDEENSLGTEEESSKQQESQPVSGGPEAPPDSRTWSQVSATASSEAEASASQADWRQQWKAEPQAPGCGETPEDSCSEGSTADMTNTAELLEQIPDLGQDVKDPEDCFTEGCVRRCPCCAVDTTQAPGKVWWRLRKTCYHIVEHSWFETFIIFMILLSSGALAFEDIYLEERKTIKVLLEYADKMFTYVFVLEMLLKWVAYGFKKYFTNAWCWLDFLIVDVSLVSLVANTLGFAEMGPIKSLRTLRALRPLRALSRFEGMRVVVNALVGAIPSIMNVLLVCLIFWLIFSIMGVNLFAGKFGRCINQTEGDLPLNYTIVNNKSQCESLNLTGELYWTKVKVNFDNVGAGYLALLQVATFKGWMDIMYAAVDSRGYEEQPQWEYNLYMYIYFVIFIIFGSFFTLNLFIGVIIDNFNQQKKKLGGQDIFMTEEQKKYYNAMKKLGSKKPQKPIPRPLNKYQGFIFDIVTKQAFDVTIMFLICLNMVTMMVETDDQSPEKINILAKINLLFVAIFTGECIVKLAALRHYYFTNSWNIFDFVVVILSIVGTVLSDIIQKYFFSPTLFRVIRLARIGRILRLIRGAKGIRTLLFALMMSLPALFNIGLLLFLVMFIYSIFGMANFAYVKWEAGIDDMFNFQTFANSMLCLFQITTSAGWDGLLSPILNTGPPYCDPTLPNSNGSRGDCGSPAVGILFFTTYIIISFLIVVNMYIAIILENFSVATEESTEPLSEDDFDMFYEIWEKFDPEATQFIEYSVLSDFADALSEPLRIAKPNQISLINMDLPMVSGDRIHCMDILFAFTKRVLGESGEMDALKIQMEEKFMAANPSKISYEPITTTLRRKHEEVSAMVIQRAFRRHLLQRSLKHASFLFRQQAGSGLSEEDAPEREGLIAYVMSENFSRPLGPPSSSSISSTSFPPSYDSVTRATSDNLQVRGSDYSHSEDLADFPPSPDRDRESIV

| SMILES | inhibition at 10 µM [%] |
| --- | --- |
| CC1=C(C(=O)OCc2ccccc2)[C@@H](c2ccccc2-c2cccc(C(N)=O)c2)n2nnnc2N1 [PT-238, (R)-benzyl 7-(3′-carbamoylbiphenyl-2-yl)-5-methyl-4,7-dihydrotetrazolo[1,5-a]pyrimidine-6-carboxylate] | 49.9 |
| CCOC(=O)C1=C(C)Nc2nnnn2C1c1ccccc1-c1ccc(-c2nnn[nH]2)cc1 (stereo not shown) [PT-500, ethyl 7-(4′-(1H-tetrazol-5-yl)biphenyl-2-yl)-5-methyl-4,7-dihydrotetrazolo[1,5-a]pyrimidine-6-carboxylate] | 2.7 |
| CC1=C(C(=O)OCc2ccccc2)C(c2ccc(C(F)(F)F)cc2[N+](=O)[O-])n2nnnc2N1 (stereo not shown) [PT-347, benzyl 5-methyl-7-(2-nitro-4-(trifluoromethyl)phenyl)-4,7-dihydrotetrazolo[1,5-a]pyrimidine-6-carboxylate] | 5.1 |
| CCOC(=O)C1=C(C)Nc2ccnn2C1c1ccc(OC)cc1C#N (stereo not shown) [PT-491, ethyl 7-(2-cyano-4-methoxyphenyl)-5-methyl-4,7-dihydropyrazolo[1,5-a]pyrimidine-6-carboxylate] | -0.9 |
| CCOC(=O)C1=C(C)Nc2ccnn2C1c1ccccc1OCCN(C)C (stereo not shown) [PT-478, ethyl 7-(2-(2-(dimethylamino)ethoxy)phenyl)-5-methyl-4,7-dihydropyrazolo[1,5-a]pyrimidine-6-carboxylate] | 34.3 |
| CC1=C(C(=O)OCc2ccccc2)C(c2ccccc2-c2c(C)noc2C)n2nnnc2N1 (stereo not shown) [PT-376, benzyl 7-(2-(3,5-dimethylisoxazol-4-yl)phenyl)-5-methyl-4,7-dihydrotetrazolo[1,5-a]pyrimidine-6-carboxylate] | 61 |
| CC1=C(C(=O)OCc2ccccc2)C(c2ccc(C)c3ccccc23)n2nnnc2N1 (stereo not shown) [PT-031, benzyl 5-methyl-7-(4-methylnaphthalen-1-yl)-4,7-dihydrotetrazolo[1,5-a]pyrimidine-6-carboxylate] | 28.6 |
| CC1=C(C(=O)OCc2ccccc2)C(c2ccccc2Br)n2nnnc2N1 (stereo not shown) [PT-387, benzyl 7-(2-bromophenyl)-5-methyl-4,7-dihydrotetrazolo[1,5-a]pyrimidine-6-carboxylate] | 84.8 |
| CCOC(=O)C1=C(C)Nc2nnnn2C1c1ccccc1-c1cncnc1 (stereo not shown) [PT-461, ethyl 5-methyl-7-(2-(pyrimidin-5-yl)phenyl)-4,7-dihydrotetrazolo[1,5-a]pyrimidine-6-carboxylate] | 6.2 |
| COC(=O)C1=C(C)Nc2nnnn2C1c1cccs1 (stereo not shown) [PT-513, methyl 5-methyl-7-(thiophen-2-yl)-4,7-dihydrotetrazolo[1,5-a]pyrimidine-6-carboxylate] | 10.5 |
| CC1=C(C(=O)OCc2ccccc2)C(c2ccccc2Br)c2cn[nH]c2N1 (stereo not shown) [PT-330, benzyl 4-(2-bromophenyl)-6-methyl-4,7-dihydro-1H-pyrazolo[3,4-b]pyridine-5-carboxylate] | 21.2 |
| COc1ccc2ccccc2c1C1C(C(=O)O[C@@H](C)c2ccccc2)=C(C)Nc2nnnn21 (stereo partly drawn) [PT-053, (S)-1-phenylethyl 7-(2-methoxynaphthalen-1-yl)-5-methyl-4,7-dihydrotetrazolo[1,5-a]pyrimidine-6-carboxylate] | 53.6 |
| CCOC(=O)C1=C(C)Nc2nnnn2C1c1ccc(OC)c2ccccc12 (stereo not shown) [PT-504, ethyl 7-(4-methoxynaphthalen-1-yl)-5-methyl-4,7-dihydrotetrazolo[1,5-a]pyrimidine-6-carboxylate] | 28.2 |
| CCOC(=O)C1=C(C)Nc2nnnn2C1c1cccc(OCc2ccc(C(=O)O)cc2)c1 (stereo not shown) [PT-286, 4-((3-(6-(ethoxycarbonyl)-5-methyl-4,7-dihydrotetrazolo[1,5-a]pyrimidin-7-yl)phenoxy)methyl)benzoic acid] | 8.8 |
| CCOC(=O)C1=C(C)N(Cc2nnn[nH]2)c2nnnn2C1c1cccc2ccccc12 (stereo not shown) [PT-444, ethyl 4-((1H-tetrazol-5-yl)methyl)-5-methyl-7-(naphthalen-1-yl)-4,7-dihydrotetrazolo[1,5-a]pyrimidine-6-carboxylate] | 9.1 |
| Cc1n[nH]c2c1C(c1cccc3ccccc13)C1=C(COC1=O)N2 (stereo not shown) [PT-081, 3-methyl-4-(naphthalen-1-yl)-7,8-dihydro-1H-furo[3,4-e]pyrazolo[3,4-b]pyridin-5(4H)-one] | 16.6 |
| CCOC(=O)C1=C(C)Nc2nnnn2C1c1ccccc1-c1ccncc1 (stereo not shown) [PT-460, ethyl 5-methyl-7-(2-(pyridin-4-yl)phenyl)-4,7-dihydrotetrazolo[1,5-a]pyrimidine-6-carboxylate] | 22.1 |
| CC1=C(C(=O)OCc2cccs2)C(c2cccc3ccccc23)n2nnnc2N1 (stereo not shown) [PT-525, thiophen-2-ylmethyl 5-methyl-7-(naphthalen-1-yl)-4,7-dihydrotetrazolo[1,5-a]pyrimidine-6-carboxylate] | 67.5 |
| CC1=C(C(=O)OCc2ccccc2)C(c2cccc(-c3ccccc3)c2)n2nnnc2N1 (stereo not shown) [PT-026, benzyl 7-(biphenyl-3-yl)-5-methyl-4,7-dihydrotetrazolo[1,5-a]pyrimidine-6-carboxylate] | 10.3 |

| SMILES | inhibition at 10 µM [%] |
| --- | --- |
| CC1=C(C(=O)O[C@@H](C)c2ccccc2)C(c2ccc(N(C)C)c3ccccc23)n2nnnc2N1 (stereo partly drawn) [PT-054, (S)-1-phenylethyl 7-(4-(dimethylamino)naphthalen-1-yl)-5-methyl-4,7-dihydrotetrazolo[1,5-a]pyrimidine-6-carboxylate] | 72.4 |
| CCOC(=O)C1=C(C)NC2=C(C(=O)CCC2)C1c1cc2cc(OC)ccc2nc1Cl (stereo not shown) [PT-188, ethyl 2-chloro-6-methoxy-2′-methyl-5′-oxo-1′,4′,5′,6′,7′,8′-hexahydro-3,4′-biquinoline-3′-carboxylate] | -0.8 |
| COC(=O)c1ccc(-c2ccc(COC(=O)C3=C(C)Nc4nnnn4C3c3cccc4ccccc34)cc2)cc1 (stereo not shown) [PT-200, (4′-(methoxycarbonyl)biphenyl-4-yl)methyl 5-methyl-7-(naphthalen-1-yl)-4,7-dihydrotetrazolo[1,5-a]pyrimidine-6-carboxylate] | 7.4 |
| CC1=C(C(=O)OC(C)C)C(c2ccc(-c3ccc(Cl)cc3)o2)C(C(=O)OC(C)C)=C(C)N1 [PT-126, diisopropyl 4-(5-(4-chlorophenyl)furan-2-yl)-2,6-dimethyl-1,4-dihydropyridine-3,5-dicarboxylate] | -39 |
| O=C1OCC(O)=C1C(C1=C(O)COC1=O)c1cccc2ccccc12 [PT-222, 3,3′-(naphthalen-1-ylmethylene)bis(4-hydroxyfuran-2(5H)-one)] | 15.8 |
| CC1=C(C(=O)O[C@@H](C)c2ccccc2)C(c2cc3ccccc3o2)n2nnnc2N1 (stereo partly drawn) [PT-058, (S)-1-phenylethyl 7-(benzofuran-2-yl)-5-methyl-4,7-dihydrotetrazolo[1,5-a]pyrimidine-6-carboxylate] | 71.4 |
| CCOC(=O)C1=C(C)Nc2nnnn2C1c1ccccc1-c1cccc(C#N)c1 (stereo not shown) [PT-499, ethyl 7-(3′-cyanobiphenyl-2-yl)-5-methyl-4,7-dihydrotetrazolo[1,5-a]pyrimidine-6-carboxylate] | 27.7 |
| CCOC(=O)CN1C(C)=C(C(=O)OCc2ccccc2)C(c2cccc3ccccc23)n2nnnc21 (stereo not shown) [PT-331, benzyl 4-(2-ethoxy-2-oxoethyl)-5-methyl-7-(naphthalen-1-yl)-4,7-dihydrotetrazolo[1,5-a]pyrimidine-6-carboxylate] | 29.6 |
| CC1=C(C(=O)OCc2ccccc2)C(c2ccc3c(c2)OCCO3)n2nnnc2N1 (stereo not shown) [PT-035, benzyl 7-(2,3-dihydrobenzo[b][1,4]dioxin-6-yl)-5-methyl-4,7-dihydrotetrazolo[1,5-a]pyrimidine-6-carboxylate] | 44 |
| CC1=C(C(=O)N2CCC(c3ccccc3)CC2)C(c2ccc3ccccc3c2)C2=C(CCCC2=O)N1 (stereo not shown) [PT-169, 2-methyl-4-(naphthalen-2-yl)-3-(4-phenylpiperidine-1-carbonyl)-4,6,7,8-tetrahydroquinolin-5(1H)-one] | 11.8 |
| COC(=O)C1=C(C)Nc2cc(C)nn2C1c1nc(C)cs1 (stereo not shown) [PT-507, methyl 2,5-dimethyl-7-(4-methylthiazol-2-yl)-4,7-dihydropyrazolo[1,5-a]pyrimidine-6-carboxylate] | 0.2 |
| CC1=C(C(=O)OCc2ccccc2)C(c2ccccc2-c2ccccc2C)n2nnnc2N1 (stereo not shown) [PT-344, benzyl 5-methyl-7-(2′-methylbiphenyl-2-yl)-4,7-dihydrotetrazolo[1,5-a]pyrimidine-6-carboxylate] | 44.6 |
| CCOC(=O)c1ccc(COc2ccccc2C2C(C(=O)OC)=C(C)Nc3nnnn32)cc1 (stereo not shown) [PT-516, methyl 7-(2-(4-(ethoxycarbonyl)benzyloxy)phenyl)-5-methyl-4,7-dihydrotetrazolo[1,5-a]pyrimidine-6-carboxylate] | 20.2 |
| COC(=O)c1ccc(OCCOC(=O)C2=C(C)Nc3nnnn3C2c2cccc3ccccc23)cc1 (stereo not shown) [PT-251, 2-(4-(methoxycarbonyl)phenoxy)ethyl 5-methyl-7-(naphthalen-1-yl)-4,7-dihydrotetrazolo[1,5-a]pyrimidine-6-carboxylate] | 11.5 |
| COC(=O)C1=C(C)Nc2[nH]ncc2C1c1nc(C)cs1 (stereo not shown) [PT-515, methyl 6-methyl-4-(4-methylthiazol-2-yl)-4,7-dihydro-1H-pyrazolo[3,4-b]pyridine-5-carboxylate] | 10.8 |
| CCOC(=O)C1=C(C)Nc2[nH]ncc2C1c1ccccc1-c1ccc(NS(C)(=O)=O)cc1 (stereo not shown) [PT-471, ethyl 6-methyl-4-(4′-(methylsulfonamido)biphenyl-2-yl)-4,7-dihydro-1H-pyrazolo[3,4-b]pyridine-5-carboxylate] | 30 |
| CCOC(=O)C1=C(C)NC2=C(C(=O)CCC2)C1c1ccc(OC)c2ccc(OC)cc12 (stereo not shown) [PT-138, ethyl 4-(4,7-dimethoxynaphthalen-1-yl)-2-methyl-5-oxo-1,4,5,6,7,8-hexahydroquinoline-3-carboxylate] | 34.1 |
| N#CC1=C(N)OC2=C(C(=O)CC2)C1c1ccc(Br)cc1 (stereo not shown) [PT-093, 2-amino-4-(4-bromophenyl)-5-oxo-4,5,6,7-tetrahydrocyclopenta[b]pyran-3-carbonitrile] | -2.6 |
